Calls of active or inactive are those of the source. No cut-off for these calls is given here. Where a SMILES comes first, the peptide text is derived from it. [ ]: non-standard residue; d: D form. The star is where a group is joined. Ac6c = NC1(C(=O)O)CCCCC1; Cbz = O=C(OCc1ccccc1)*
Columns and labels:
Procathepsin L [1] = target: T1, Procathepsin L (Homo sapiens, UniProt P07711); test: Inhibition of human cathepsin L
Target sequence in this assay (P07711 whole entry): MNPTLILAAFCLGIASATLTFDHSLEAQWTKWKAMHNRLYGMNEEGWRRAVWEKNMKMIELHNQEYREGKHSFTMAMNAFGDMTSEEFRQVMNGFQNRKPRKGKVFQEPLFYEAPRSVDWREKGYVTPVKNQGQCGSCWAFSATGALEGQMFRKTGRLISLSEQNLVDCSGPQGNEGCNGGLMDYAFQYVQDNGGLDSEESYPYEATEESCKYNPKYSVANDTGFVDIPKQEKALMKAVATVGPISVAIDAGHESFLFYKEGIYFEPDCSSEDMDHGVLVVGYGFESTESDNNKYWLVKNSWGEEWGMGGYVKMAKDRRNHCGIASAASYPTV

Homo sapiens = species on record: Homo sapiens; test: Inhibition of human alpha-chymotrypsin using Suc-Leu-Tyr-AMC as substrate assessed as residual activity after 10 mins by Dixon plot analysis
Plasmodium falciparum = test: Inhibition of Plasmodium falciparum recombinant falcipain 2 using Cbz-Leu-Arg-AMC as substrate at 20 uM after 10 mins by fluorescence spectrophotometric analysis relative to control
[2] = Inhibition of Plasmodium falciparum recombinant falcipain 2 using Cbz-Leu-Arg-AMC as substrate after 10 mins by fluorescence spectrophotometric analysis
Cathepsin B [3] = target: T2, Cathepsin B (Homo sapiens, UniProt P07858); test: Inhibition of human cathepsin B at 20 uM relative to control
Procathepsin L [4] = target: T1, Procathepsin L; test: Inhibition of human cathepsin L at 20 uM relative to control
Target sequence in this assay (P07711 114-333 limits assumed): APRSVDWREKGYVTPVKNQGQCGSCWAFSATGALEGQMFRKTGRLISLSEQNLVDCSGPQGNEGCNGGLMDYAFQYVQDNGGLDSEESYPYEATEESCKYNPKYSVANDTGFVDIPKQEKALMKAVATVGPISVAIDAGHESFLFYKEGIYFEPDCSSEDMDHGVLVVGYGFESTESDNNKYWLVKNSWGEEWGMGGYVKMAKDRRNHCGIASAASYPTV

Cathepsin B [5] = target: T2, Cathepsin B; test: Inhibition of human cathepsin B

Ki (Procathepsin L [1]) [µM] | Activity (Homo sapiens) | inhibition (Plasmodium falciparum) [%] | inhibition (Cathepsin B [3]) [%] | inhibition (Procathepsin L [4]) [%] | Ki (Cathepsin B [5]) [µM] | SMILES | Ki [2] [µM]
26.5 | inactive | < 35 | < 35 | < 35 | – | N#CCNC(=O)C1(NC(=O)OCc2ccccc2)CCCCC1 | 1.2
– | inactive | < 35 | < 35 | < 35 | – | N#CCNC(=O)C1(NC(=O)CCc2ccco2)CCCCC1 | 17.2
– | inactive | < 35 | < 35 | < 35 | – | N#CCNC(=O)C1(NC(=O)CCc2cccs2)CCCCC1 | 8.8
29.8 | inactive | < 35 | < 35 | < 35 | 25 | N#CCNC(=O)C1(NC(=O)CCC2CCCC2)CCCCC1 | 8.2
0.82 | inactive | < 35 | < 35 | < 35 | 1.35 | O=CCNC(=O)C1(NC(=O)OCc2ccccc2)CCCCC1 (Cbz-[Ac6c]-Gly-aldehyde) | 0.065
– | inactive | < 35 | < 35 | < 35 | – | N#CCNC(=O)C1(NC(=O)C2CCCC2)CCCCC1 | 7.6
13.1 | inactive | < 35 | < 35 | < 35 | 5 | N#CCNC(=O)C1(NC(=O)[C@H]2C[C@@H]2c2ccccc2)CCCCC1 (racemic) | 2.1
– | inactive | < 35 | < 35 | < 35 | – | CC(C)(NC(=O)OCc1ccccc1)C(=O)NCC#N | –
– | inactive | < 35 | < 35 | < 35 | – | N#C[C@@H]1CCCN1C(=O)C1(NC(=O)OCc2ccccc2)CCCCC1 | –
– | inactive | < 35 | < 35 | < 35 | – | COc1ccc(CCC(=O)NC2(C(=O)NCC#N)CCCCC2)cc1OC | 7.3
25.1 | inactive | < 35 | < 35 | < 35 | – | COc1ccccc1CCC(=O)NC1(C(=O)NCC#N)CCCCC1 | 5.2
– | inactive | < 35 | < 35 | < 35 | – | N#CCNC(=O)C1(NC(=O)CCc2cccnc2)CCCCC1 | 9.4
– | inactive | < 35 | < 35 | < 35 | – | COc1ccc(CCC(=O)NC2(C(=O)NCC#N)CCCCC2)cc1 | 8.9
